According to patent US20220160651A1, “RAPIDLY IMPROVING ENDOTHELIAL FUNCTION, REDUCING ARTERIAL STIFFNESS AND REVERSING CALCIFICATION OF BLOOD VESSELS BY ADMINISTERING VITAMIN K” (KAYDENCE PHARMA AS, priority 2019, published 2022):

Tested on: ApoE/LDLR−/− mice
Experiment: MRI assessment of endothelium-dependent vasodilatation (FMD in femoral artery, Ach response in abdominal aorta), young mice (Example 3)
Assay type: in vivo
Experimental: Mice were randomly assigned to one of four experimental groups: control (untreated group) and three groups treated with vitamin K2 at a dose of 0.05, 0.5, and 5 mg/kg b.w./day, respectively. End-point measurements were performed at the age of 10-16 weeks.
Magnetic resonance imaging (MRI) experiments were performed using a 9.4T scanner (BioSpec 94/20 USR, Bruker, Germany) located in the Department of Magnetic Resonance Imaging, Institute of Nuclear Physics, Polish Academy of Sciences in Krakow. During the experiment, mice were anaesthetized using isoflurane (Aerrane, Baxter Sp. z o. o., Poland, 1.7 vol %) in an oxygen and air (1:2) mixture and imaged in the supine position. Activity of the heart, respiration, and body temperature (maintained at 37° C. using circulating warm water) were monitored using a Monitoring and Gating System (SA Inc., Stony Brook, N.Y., USA).
Endothelial function was assessed based on vascular responses to acetylcholine (Ach) administration in brachiocephalic artery (BCA), left common carotid artery (LCA) (FIGS. 6 A and B) and abdominal aorta (AA) (FIG. 6C) as well as to responses to increase in flow (flow-mediated dilatation, FMD) in femoral artery (FA) (FIG. 6D) as described in Bar A, Skorka T, Jasinski K, Sternak M, Bartel Ż, Tyrankiewicz U, et al. Retrospectively-gated MRI for in vivo assessment of endothelium-dependent vasodilatation and endothelial permeability in murine models of endothelial dysfunction. NMR Biomed 2016; 29(8):1088.; Sternak M, Bar A, Adamski M G, Mohaissen T, Marczyk B, Kieronska A, et al. The Deletion of Endothelial Sodium Channel α (αENaC) Impairs Endothelium-Dependent Vasodilation and Endothelial Barrier Integrity in Endotoxemia in Vivo. Front Pharmacol 2018; 9:178. doi:10.3389/fphar.2018.00178.; and Bar A, Olkowicz M, Tyrankiewicz U, Kus E, Jasinski K, Smolenski R T, et al. Functional and Biochemical Endothelial Profiling In Vivo in a Murine Model of Endothelial Dysfunction; Comparison of Effects of 1-Methylnicotinamide and Angiotensin-converting Enzyme Inhibitor. Front Pharmacol 2017; 8:183. doi:10.3389/fphar.2017.00183.).
Vasomotor response was examined by comparing two time-resolved 3D images of the vessels prior to and 25 minutes after intraperitoneal Ach administration (Sigma-Aldrich, Poznan Poland: 50 μl, 16.6 mg/kg), as well as prior to and 5 minutes after vessel occlusion. Images were acquired using the cine IntraGate™ FLASH 3D sequence, reconstructed with the IntraGate 1.2.b.2 macro (Bruker). End-diastolic volumes of vessels were analyzed using ImageJ software 1.46r (NIH Bethesda, Md., USA) and scripts written in Matlab (MathWorks, Natick, Mass., USA). Imaging parameters included the following: repetition time (TR)—6.4 ms, echo time (TE)—1.4 ms, field of view (FOV) −30×30×5 mm3, matrix size—256×256×30, flip angle (FA)—30°, and number of accumulations (NA)—15, reconstructed to 7 cardiac frames. Total scan time was 10 minutes.

[1] = 0.05 mg/kg b.w./day, eight weeks
[2] = 0.05 mg/kg b.w./day, four weeks, 15-week-old mice

CC(C)=CCC/C(C)=C/CC/C(C)=C/CC/C(C)=C/CC/C(C)=C/CC/C(C)=C/CC/C(C)=C/CC1=C(C)C(=O)c2ccccc2C1=O [MK-7, menaquinone-7]
Ach response in AA, volume changes [1]: −0.65% | FMD in FA, volume changes [1]: 28.34% | Ach response in AA, volume changes [2]: −1.59% | FMD in FA, volume changes [2]: 33.26% | Ach response in AA, volume changes (0.5 mg/kg b.w./day, two weeks): 1.52% | FMD in FA, volume changes (0.5 mg/kg b.w./day, two weeks): 28.57% | Ach response in AA, volume changes (5 mg/kg b.w./day, two weeks): 0.16% | FMD in FA, volume changes (5 mg/kg b.w./day, two weeks): 26.55%
